From the NIST ThermoML archive (doi:10.1016/j.fluid.2014.10.004)
± gives the expanded uncertainty stated by the source.

What was measured:
[1] = xn = mol fraction of the nth substance listed; details: 101.3 kPa, Liquid, Sing-around technique in a fixed-path interferometer
[2] = refractive index (Na D-line) (dimensionless); xn = mol fraction of the nth substance listed; details: 101.3 kPa, Liquid, Standard Abbe refractometry

**Q.** For C[N+](=O)[O-] [nitromethane] + CC(Cl)(Cl)Cl, which speed of sound ([1]; 298.15 K, x2 = 0) is on record?
**A.** Its speed of sound is 1321.6 ± 1.8 m/s.

**Q.** And the speed of sound ([1]; 308.15 K, x2 = 0)?
**A.** Its speed of sound is 1281.9 ± 1.8 m/s.

**Q.** And the speed of sound ([1]; 318.15 K, x2 = 0)?
**A.** The speed of sound was 1242.5 ± 1.7 m/s.

**Q.** And the refractive index ([2]; 298.15 K, x2 = 0)?
**A.** Its refractive index is 1.37949 ± 0.0004.

**Q.** What about the refractive index ([2]; 308.15 K, x2 = 0) of the same compound?
**A.** Its refractive index is 1.37473 ± 0.0004.

**Q.** What about the refractive index ([2]; 318.15 K, x2 = 0) of the same compound?
**A.** The refractive index was 1.36995 ± 0.0004.

**Q.** Which results are given for C[N+](=O)[O-] [nitromethane] + CCCCCCl?
**A.** speed of sound ([1]; 298.15 K, x2 = 0): 1321.7 ± 1.8 m/s; speed of sound ([1]; 308.15 K, x2 = 0): 1282 ± 1.8 m/s; speed of sound ([1]; 318.15 K, x2 = 0): 1242.6 ± 1.7 m/s; refractive index ([2]; 298.15 K, x2 = 0): 1.37954 ± 0.0004; refractive index ([2]; 308.15 K, x2 = 0): 1.3747 ± 0.0004; refractive index ([2]; 318.15 K, x2 = 0): 1.36996 ± 0.0004

**Q.** With C[N+](=O)[O-] [nitromethane] + CCCCCl as the compound, how does the speed of sound ([1]; 298.15 K, x2 = 0) read?
**A.** The speed of sound was 1321.5 ± 1.8 m/s.

**Q.** What about the speed of sound ([1]; 298.15 K, x2 = 0.1107) of the same compound?
**A.** Its speed of sound is 1273.7 ± 1.7 m/s.

**Q.** And the speed of sound ([1]; 298.15 K, x2 = 0.2174)?
**A.** Its speed of sound is 1236.5 ± 1.6 m/s.

**Q.** And the speed of sound ([1]; 298.15 K, x2 = 0.3236)?
**A.** The speed of sound was 1207.6 ± 1.5 m/s.

**Q.** And the speed of sound ([1]; 298.15 K, x2 = 0.3932)?
**A.** Its speed of sound is 1191.9 ± 1.5 m/s.

**Q.** And the speed of sound ([1]; 298.15 K, x2 = 0.4856)?
**A.** Its speed of sound is 1174.5 ± 1.4 m/s.

**Q.** What about the speed of sound ([1]; 298.15 K, x2 = 0.5569) of the same compound?
**A.** The speed of sound was 1163.5 ± 1.4 m/s.

**Q.** And the speed of sound ([1]; 298.15 K, x2 = 0.6626)?
**A.** The speed of sound was 1149.3 ± 1.3 m/s.

**Q.** What about the speed of sound ([1]; 298.15 K, x2 = 0.7722) of the same compound?
**A.** Its speed of sound is 1137.6 ± 1.3 m/s.

**Q.** And the speed of sound ([1]; 298.15 K, x2 = 0.8646)?
**A.** Its speed of sound is 1129.1 ± 1.2 m/s.

**Q.** What about the speed of sound ([1]; 308.15 K, x2 = 0) of the same compound?
**A.** The speed of sound was 1282.1 ± 1.8 m/s.

**Q.** And the speed of sound ([1]; 308.15 K, x2 = 0.1107)?
**A.** Its speed of sound is 1234.3 ± 1.7 m/s.

**Q.** What about the speed of sound ([1]; 308.15 K, x2 = 0.2174) of the same compound?
**A.** The speed of sound was 1197.1 ± 1.6 m/s.

**Q.** What about the speed of sound ([1]; 308.15 K, x2 = 0.3236) of the same compound?
**A.** The speed of sound was 1168.1 ± 1.5 m/s.

**Q.** And the speed of sound ([1]; 308.15 K, x2 = 0.3932)?
**A.** The speed of sound was 1152.3 ± 1.5 m/s.

**Q.** What about the speed of sound ([1]; 308.15 K, x2 = 0.4856) of the same compound?
**A.** The speed of sound was 1134.7 ± 1.4 m/s.

**Q.** And the speed of sound ([1]; 308.15 K, x2 = 0.5569)?
**A.** The speed of sound was 1123.2 ± 1.4 m/s.

**Q.** What about the speed of sound ([1]; 308.15 K, x2 = 0.6626) of the same compound?
**A.** The speed of sound was 1109.1 ± 1.3 m/s.

**Q.** What about the speed of sound ([1]; 308.15 K, x2 = 0.7722) of the same compound?
**A.** Its speed of sound is 1096.8 ± 1.3 m/s.

**Q.** And the speed of sound ([1]; 308.15 K, x2 = 0.8646)?
**A.** Its speed of sound is 1088.3 ± 1.2 m/s.

**Q.** What about the speed of sound ([1]; 318.15 K, x2 = 0) of the same compound?
**A.** Its speed of sound is 1242.8 ± 1.7 m/s.

**Q.** What about the speed of sound ([1]; 318.15 K, x2 = 0.1107) of the same compound?
**A.** Its speed of sound is 1195 ± 1.7 m/s.

**Q.** What about the speed of sound ([1]; 318.15 K, x2 = 0.2174) of the same compound?
**A.** The speed of sound was 1157.8 ± 1.6 m/s.

**Q.** And the speed of sound ([1]; 318.15 K, x2 = 0.3236)?
**A.** The speed of sound was 1128.9 ± 1.5 m/s.

**Q.** What about the speed of sound ([1]; 318.15 K, x2 = 0.3932) of the same compound?
**A.** The speed of sound was 1112.8 ± 1.5 m/s.

**Q.** What about the speed of sound ([1]; 318.15 K, x2 = 0.4856) of the same compound?
**A.** The speed of sound was 1094.9 ± 1.4 m/s.

**Q.** What about the speed of sound ([1]; 318.15 K, x2 = 0.5569) of the same compound?
**A.** The speed of sound was 1083.1 ± 1.4 m/s.

**Q.** What about the speed of sound ([1]; 318.15 K, x2 = 0.6626) of the same compound?
**A.** Its speed of sound is 1068.9 ± 1.3 m/s.

**Q.** What about the speed of sound ([1]; 318.15 K, x2 = 0.7722) of the same compound?
**A.** Its speed of sound is 1056.6 ± 1.3 m/s.

**Q.** And the speed of sound ([1]; 318.15 K, x2 = 0.8646)?
**A.** The speed of sound was 1047.8 ± 1.2 m/s.

**Q.** And the refractive index ([2]; 298.15 K, x2 = 0)?
**A.** The refractive index was 1.37917 ± 0.0004.

**Q.** And the refractive index ([2]; 298.15 K, x2 = 0.1107)?
**A.** Its refractive index is 1.38191 ± 0.00039.

**Q.** What about the refractive index ([2]; 298.15 K, x2 = 0.2174) of the same compound?
**A.** The refractive index was 1.38445 ± 0.00038.

**Q.** What about the refractive index ([2]; 298.15 K, x2 = 0.3236) of the same compound?
**A.** The refractive index was 1.38691 ± 0.00037.

**Q.** What about the refractive index ([2]; 298.15 K, x2 = 0.3932) of the same compound?
**A.** The refractive index was 1.38839 ± 0.00036.

**Q.** What about the refractive index ([2]; 298.15 K, x2 = 0.4856) of the same compound?
**A.** The refractive index was 1.39032 ± 0.00035.

**Q.** What about the refractive index ([2]; 298.15 K, x2 = 0.5569) of the same compound?
**A.** Its refractive index is 1.39177 ± 0.00035.

**Q.** And the refractive index ([2]; 298.15 K, x2 = 0.6626)?
**A.** The refractive index was 1.39383 ± 0.00034.

**Q.** What about the refractive index ([2]; 298.15 K, x2 = 0.7722) of the same compound?
**A.** Its refractive index is 1.39577 ± 0.00033.

**Q.** What about the refractive index ([2]; 298.15 K, x2 = 0.8646) of the same compound?
**A.** The refractive index was 1.39729 ± 0.00033.

**Q.** What about the refractive index ([2]; 308.15 K, x2 = 0) of the same compound?
**A.** Its refractive index is 1.37447 ± 0.0004.

**Q.** And the refractive index ([2]; 308.15 K, x2 = 0.1107)?
**A.** Its refractive index is 1.37698 ± 0.00039.

**Q.** What about the refractive index ([2]; 308.15 K, x2 = 0.2174) of the same compound?
**A.** Its refractive index is 1.37936 ± 0.00038.

**Q.** And the refractive index ([2]; 308.15 K, x2 = 0.3236)?
**A.** Its refractive index is 1.38174 ± 0.00037.

**Q.** And the refractive index ([2]; 308.15 K, x2 = 0.3932)?
**A.** Its refractive index is 1.38321 ± 0.00036.

**Q.** And the refractive index ([2]; 308.15 K, x2 = 0.4856)?
**A.** The refractive index was 1.38511 ± 0.00035.

**Q.** What about the refractive index ([2]; 308.15 K, x2 = 0.5569) of the same compound?
**A.** The refractive index was 1.38656 ± 0.00035.

**Q.** What about the refractive index ([2]; 308.15 K, x2 = 0.6626) of the same compound?
**A.** Its refractive index is 1.38853 ± 0.00034.

**Q.** What about the refractive index ([2]; 308.15 K, x2 = 0.7722) of the same compound?
**A.** The refractive index was 1.39045 ± 0.00033.

**Q.** And the refractive index ([2]; 308.15 K, x2 = 0.8646)?
**A.** Its refractive index is 1.39196 ± 0.00033.

**Q.** What about the refractive index ([2]; 318.15 K, x2 = 0) of the same compound?
**A.** The refractive index was 1.3695 ± 0.0004.

**Q.** What about the refractive index ([2]; 318.15 K, x2 = 0.1107) of the same compound?
**A.** Its refractive index is 1.3718 ± 0.0004.

**Q.** And the refractive index ([2]; 318.15 K, x2 = 0.2174)?
**A.** Its refractive index is 1.37406 ± 0.00038.

**Q.** What about the refractive index ([2]; 318.15 K, x2 = 0.3236) of the same compound?
**A.** The refractive index was 1.37632 ± 0.00037.

**Q.** And the refractive index ([2]; 318.15 K, x2 = 0.3932)?
**A.** The refractive index was 1.37772 ± 0.00036.

**Q.** And the refractive index ([2]; 318.15 K, x2 = 0.4856)?
**A.** The refractive index was 1.37958 ± 0.00035.

**Q.** What about the refractive index ([2]; 318.15 K, x2 = 0.5569) of the same compound?
**A.** Its refractive index is 1.38104 ± 0.00035.

**Q.** And the refractive index ([2]; 318.15 K, x2 = 0.6626)?
**A.** The refractive index was 1.38299 ± 0.00034.

**Q.** And the refractive index ([2]; 318.15 K, x2 = 0.7722)?
**A.** The refractive index was 1.3848 ± 0.0003.

**Q.** And the refractive index ([2]; 318.15 K, x2 = 0.8646)?
**A.** The refractive index was 1.38635 ± 0.00033.

**Q.** For C[N+](=O)[O-] [nitromethane] + ClC(Cl)C(Cl)Cl, which speed of sound ([1]; 298.15 K, x2 = 0) is on record?
**A.** Its speed of sound is 1321.2 ± 1.8 m/s.

**Q.** What about the speed of sound ([1]; 308.15 K, x2 = 0) of the same compound?
**A.** Its speed of sound is 1281.8 ± 1.8 m/s.

**Q.** And the speed of sound ([1]; 318.15 K, x2 = 0)?
**A.** Its speed of sound is 1242.5 ± 1.7 m/s.

**Q.** What about the refractive index ([2]; 298.15 K, x2 = 0) of the same compound?
**A.** Its refractive index is 1.37946 ± 0.0004.

**Q.** And the refractive index ([2]; 308.15 K, x2 = 0)?
**A.** Its refractive index is 1.37472 ± 0.0004.

**Q.** And the refractive index ([2]; 318.15 K, x2 = 0)?
**A.** Its refractive index is 1.36996 ± 0.0004.
